Measured values taken from the SangsterLogP compilation.

Test: method code SF-AS, from DOI: 10.1135/cccc19851642

| Structure (SMILES) | logP |
| --- | --- |
| CCCCOC(=O)C=Cc1ccc([N+](=O)[O-])o1 | 2.83 |
| N#CC(C#N)=Cc1ccc(I)o1 | 2.42 |
| NC(=O)/C=C/c1ccc([N+](=O)[O-])o1 | 0.65 |
| CCOC(=O)C(=Cc1ccc([N+](=O)[O-])o1)C(=O)OCC | 2.5 |
| CN(C)C(=O)/C=C/c1ccc([N+](=O)[O-])o1 | 0.82 |
| CC(C)(C)OC(=O)C=Cc1ccc([N+](=O)[O-])o1 | 3.09 |
| CCCCCCCCCCCC(C)NC(=O)C=Cc1ccc([N+](=O)[O-])o1 (stereo not given) | 3.7 |
| CCCNC(=O)C=Cc1ccc([N+](=O)[O-])o1 | 1.86 |
| CCC(C)NC(=O)C=Cc1ccc([N+](=O)[O-])o1 (stereo not given) | 2.28 |
| CC(C)(C)CNC(=O)C=Cc1ccc([N+](=O)[O-])o1 | 2.61 |
| COC(=O)C(C#N)=Cc1ccc(I)o1 | 2.75 |
| O=[N+]([O-])/C=C/c1ccc([N+](=O)[O-])o1 | 1.3 |
| CCCOC(=O)C=Cc1ccc([N+](=O)[O-])o1 | 2.67 |
| CC(C)(C)NC(=O)C=Cc1ccc([N+](=O)[O-])o1 | 2.33 |
| CC(C)COC(=O)/C=C/c1ccc([N+](=O)[O-])o1 | 3.14 |
| O=C(O)/C=C/c1ccc([N+](=O)[O-])o1 | 0.68 |
| CNC(=O)C=Cc1ccc([N+](=O)[O-])o1 | 0.98 |
| CCOC(=O)/C=C/c1ccc([N+](=O)[O-])o1 | 2.1 |
| CC(C)CNC(=O)C=Cc1ccc([N+](=O)[O-])o1 | 2.23 |
| COC(=O)/C(C#N)=C/c1ccc(SC)o1 | 2.61 |
| CC(C)OC(=O)/C=C/c1ccc([N+](=O)[O-])o1 | 2.64 |
| O=[N+]([O-])c1ccc(C=CBr)o1 | 2.45 |
| COC(=O)C(C#N)=Cc1ccc(Br)o1 | 2.41 |
| CSc1ccc(C=C(C#N)C#N)o1 | 2.45 |
| CC(C)NC(=O)/C=C/c1ccc([N+](=O)[O-])o1 | 1.8 |
| COC(=O)/C(C#N)=C/c1ccc(C)o1 | 2.09 |
| CCCCNC(=O)C=Cc1ccc([N+](=O)[O-])o1 | 2.36 |
| CCNC(=O)C=Cc1ccc([N+](=O)[O-])o1 | 1.39 |
| CCCCCOC(=O)C=Cc1ccc([N+](=O)[O-])o1 | 3.4 |
| CCC(C)OC(=O)/C=C/c1ccc([N+](=O)[O-])o1 (stereo not given) | 3.09 |
